We go through 11 compounds from US4061760A, “Method for using 3-substituted-5-phenyl-5-pyridyl hydantoins as antiarrhythmic agents” (priority 1976, dated 1977).

Series [1] can be described thus: in vivo. Conditions: mouse, in vivo, ip; LD50 and ED50 in mg/kg, i.p.; read-out: Therapeutic index. Type of series: in vivo. How it is done: (§1) The test compounds were administered in varying intraperitoneal doses to groups consisting of 5 mice. Ten minutes after administration of a given dose of a compound, a mouse was transferred to a covered 300 ml glass beaker that contained a wad of cotton saturated with about 20 ml of chloroform. The animal was observed closely and removed from the beaker immediately after respiratory arrest. The heart was quickly exposed by making an incision through the abdomen, diaphragm, thorax and pericardium for visual inspection of ventricular rate and rhythm. Ventricular contractions were counted for 30 seconds. According to the procedure reported by Lawson, animals with ventricular rate not exceeding 100 contractions during the 30 second observation period were considered protected.

For series [2], the system named is ventricular rate and rhythm. Description: animal or person. Type of series: in vivo. The settings on record: for ED50: Mus musculus, ip, 10 min, read-out: ED50 (95% CL). How it is done: as §1
Series [3] in a line: in vivo. Conditions: ip. The text has this:
LD50 data were obtained by standard procedures known to the art.

The conditions of series [4]: cited from earlier work; for side effects / toxicity (in words): background.
For series [5] the following is noted: Casagrande, quoted; cited from earlier work.

As a reminder, the ED50 is the dose at which the effect has come halfway, by size or by number of responders. The LD50 is the dose expected to kill half of the subjects tested. With `O=C1NC(c2ccccc2)(c2ccncc2)C(=O)N1CCCN1CCC(c2ccccc2)CC1` (stereo not shown) [Example 5, 3-[3-(4-phenyl-1-piperidyl)propyl]-5-phenyl-5-(4-pyridyl)hydantoin], the selectivity ratio in series [1] is 2.1. Moreover, the ED50 in series [2] stood at 28 mg/kg. The compound also registered an LD50 in series [3] of 61 mg/kg.
For `O=C1NC(=O)C(c2ccccc2)(c2ccncc2)N1` (stereo not shown) [VII, 5-phenyl-5-(4-pyridyl)hydantoin] the same measures were 1.17, 205 mg/kg and 240 mg/kg.
As for `C=C[C@H]1C[N@@]2CC[C@H]1C[C@@H]2[C@@H](O)c1ccnc2ccc(OC)cc12` [I, quinidine], the “side effects / toxicity (in words)” value in series [4] is “relatively toxic”.
Regarding `O=C1NC(c2ccccc2)(c2ccccn2)C(=O)N1CCCN1CCC(c2ccccc2)CC1` (stereo not shown) [Example 1, 3-[3-(4-phenyl-1-piperidyl)propyl]-5-phenyl-5-(2-pyridyl)hydantoin], the selectivity ratio in series [1] stood at 9. Further, the median effective dose (ED50) in series [2] was found to be 15.3 mg/kg. Besides, the LD50 in series [3] stood at 136 mg/kg.
For the compound `CC(CN(C)C)CN1C(=O)NC(c2ccccc2)(c2cccnc2)C1=O` (stereo not drawn) [compound XXX, 3-(2-methyl-3-dimethylamino-propyl)-5-phenyl-5β-pyridyl-hydantoin], the “therapeutic index clearly superior to that of quinidine (in words)” value in series [5] is “had not been fulfilled”.
Regarding `O=C1NC(=O)C(c2ccccc2)(c2ccccn2)N1` (stereo not shown) [V, 5-phenyl-5-(2-pyridyl)hydantoin], in series [1], the selectivity ratio was found to be 1.16. Moreover, in series [2], the ED50 worked out at 160 mg/kg. This compound also had an LD50 in series [3] of 186 mg/kg.
Turning to `O=C1NC(=O)C(c2ccccc2)(c2ccccc2)N1` [DPH, 5,5-diphenyl-2,4-imidazolidinedione], in series [4], the “side effects / toxicity (in words)” value is “dizziness, nausea, emesis, nystimus, and ataxia”. Further, the “side effects at large doses (in words)” value in series [4] (large doses) was “atrio-ventricular blockage, bradycardia, or even cardiac arrest”.
For the compound `O=C1NC(=O)C(c2ccccc2)(c2cccnc2)N1` (stereo not shown) [VI, 5-phenyl-5-(3-pyridyl)hydantoin], the ED50 in series [2] is above 310 mg/kg. The mice protected in series [2] (at 310 mg/kg, i.p.) is given as 2 of 5.
With `CN(C)CCN1C(=O)NC(c2ccccc2)(c2cccnc2)C1=O` (stereo not drawn) [compound XXV, 3-(2-dimethylamino-ethyl)-5-phenyl-5β-pyridyl-hydantoin], the “therapeutic index clearly superior to that of quinidine (in words)” value in series [5] is “had not been fulfilled”.
For `O=C1NC(c2ccccc2)(c2ccccn2)C(=O)N1CCCN1CCC(O)(c2ccccc2)CC1` (stereo not shown) [Example 2, 3-[3-(4-hydroxy-4-phenyl-1-piperidyl)propyl]-5-phenyl-5-(2-pyridyl)hydantoin], the selectivity ratio in series [1] is 3.4. Besides, the ED50 in series [2] is 19.2 mg/kg. In series [3], this compound showed an LD50 of 65 mg/kg.
On to `O=C1NC(c2ccccc2)(c2cccnc2)C(=O)N1CCCN1CCC(c2ccccc2)CC1` (stereo not shown) [Example 4, 3-[3-(4-phenyl-1-piperidyl)propyl]-5-phenyl-5-(3-pyridyl)-hydantoin], for which the selectivity ratio in series [1] was 5. Besides, the ED50 in series [2] was 31 mg/kg. Besides, the LD50 in series [3] came out at 156 mg/kg.
